# Values of other authors as cited in patent US20100112083A1, “PHARMACEUTICAL PRODUCT FOR MODULATING BONE FORMATION, PROCESS FOR MODULATING BONE FORMATION” (priority 2007, published 2010).
# System: mesenchymal stem cells
# Conditions: by activating sirtuin protein Sirt1
smiles,measurement,value
Oc1ccc(/C=C/c2cc(O)cc(O)c2)cc1 [trans-resveratrol],differentiation of mesenchymal stem cells into osteoblasts,promoted the selective differentiation
